Results taken from paper PMC8945721, “Sulphoraphane Affinity-Based Chromatography for the Purification of Myrosinase from Lepidium sativum Seeds” (Biomolecules, 2022).

test system: T1, myrosinase from Lepidium sativum seeds; assay: glucose release, glucose oxidase-peroxidase coupled assay, Michaelis-Menten fit; type: biochemical; conditions: pH 6.0, 37 °C, 100 μM L-ascorbic acid; read-out: KM (×10^-3 mol/L)
T1 construct: gene beta-thioglucoside glucohydrolase
Text: glucose release, glucose oxidase-peroxidase coupled assay, Michaelis-Menten fit on myrosinase from Lepidium sativum seeds

Row | Km [µM] | SMILES
1 | 574 ± 237 | C=CC/C(=N/OS(=O)(=O)O)S[C@@H]1O[C@H](CO)[C@@H](O)[C@H](O)[C@H]1O [Sinigrin]
2 | 1130 ± 256 | C[S+]([O-])CCCC/C(=N/OS(=O)(=O)O)S[C@@H]1O[C@H](CO)[C@@H](O)[C@H](O)[C@H]1O (stereo partly drawn) [Glucoraphanin]
3 | 632 ± 235 | O=S(=O)(O)O/N=C(/Cc1ccc(O)cc1)S[C@@H]1O[C@H](CO)[C@@H](O)[C@H](O)[C@H]1O [Sinalbin]
